Measured values from US11540518B2, “Fungicidal oxadiazoles” (FMC Corporation, priority 2017, dated 2023).

Legend:
Format in all cases: in vivo
[1] = test system: Zymoseptoria tritici; experiment: Test B: wheat leaf blotch control on wheat seedlings; conditions: sprayed to run-off on wheat seedlings, inoculated the following day, 100 = 100% disease control, 0 = no control
Description: (§1) General protocol for preparing test suspensions for Tests A-C: the test compounds were first dissolved in acetone in an amount equal to 3% of the final volume and then suspended at the desired concentration (in ppm) in acetone and purified water (50/50 mix by volume) containing 250 ppm of the surfactant PEG400 (polyhydric alcohol esters). The resulting test suspensions were then used in Tests A-C. The test solution was sprayed to the point of run-off on wheat seedlings. The following day the seedlings were inoculated with a spore suspension of Zymoseptoria tritici (the causal agent of wheat leaf blotch) and incubated in a saturated atmosphere at 24° C. for 48 h, and then moved to a growth chamber at 20° C. for 17 days, after which time disease ratings were made. Results for Tests A-C are given in Table A. In the Table, a rating of 100 indicates 100% disease control and a rating of 0 indicates no disease control (relative to the controls). A dash (-) indicates the compound was not tested.

[2] = test system: Puccinia recondita f. sp. tritici; experiment: Test C: wheat leaf rust control on wheat seedlings; conditions: sprayed to run-off on wheat seedlings, inoculated the following day, 100 = 100% disease control, 0 = no control
Description: as §1, with “Puccinia recondita f. sp.” for “Zymoseptoria”, “rust)” for “blotch)”, “20°” for “24°”, “24” for “48”, “6” for “17”

[3] = test system: Phakopsora pachyrhizi; experiment: Test A: Asian soybean rust control on soybean seedlings; conditions: sprayed to run-off on soybean seedlings, inoculated the following day, 100 = 100% disease control, 0 = no control
Description: General protocol for preparing test suspensions for Tests A-C: the test compounds were first dissolved in acetone in an amount equal to 3% of the final volume and then suspended at the desired concentration (in ppm) in acetone and purified water (50/50 mix by volume) containing 250 ppm of the surfactant PEG400 (polyhydric alcohol esters). The resulting test suspensions were then used in Tests A-C.
The test solution was sprayed to the point of run-off on soybean seedlings. The following day the seedlings were inoculated with a spore suspension of Phakopsora pachyrhizi (the causal agent of Asian soybean rust) and incubated in a saturated atmosphere at 22° C. for 24 h, and then moved to a growth chamber at 22° C. for 8 days, after which time visual disease ratings were made.
Results for Tests A-C are given in Table A. In the Table, a rating of 100 indicates 100% disease control and a rating of 0 indicates no disease control (relative to the controls). A dash (-) indicates the compound was not tested.

[4] = 250 ppm (incl. values marked * = tested at 250 ppm)
[5] = Puccinia recondita, 168 h, 250 ppm, read-out: Test C disease control rating
[6] = Phakopsora pachyrhizi, 216 h, 250 ppm, read-out: Test A disease control rating

Structure (SMILES)	Test B disease control rating [1, 4]	Test C disease control rating ([2]; 10 ppm) [%]	Test A disease control rating ([3]; 10 ppm) [%]	Test C disease control rating ([2]; 250 ppm) [%]	Test A disease control rating ([3]; 250 ppm) [%]	other results
CCNC(=O)OCCCn1cc(-c2noc(C(F)(F)F)n2)cn1 [Compound 18]	50* %					pest or weed control at 50 ppm ([2]; Puccinia recondita, 168 h, 50 ppm, read-out: Test C disease control rating): 0%; pest or weed control at 50 ppm ([3]; Phakopsora pachyrhizi, 216 h, 50 ppm, read-out: Test A disease control rating): 38%
C#CCN(C)C(=O)OCc1ccc(-c2noc(C(F)(F)F)n2)cc1 [Compound 32]	0* %	68	100			
C#CCCNC(=O)OCc1ccc(-c2noc(C(F)(F)F)n2)cc1 [Compound 33]	0* %	100	100			
CNC(=O)OCc1ccc(-c2noc(C(F)(F)F)n2)s1 [Compound 38]	80* %	96	94			
CCNC(=O)OCc1ccc(-c2noc(C(F)(F)F)n2)s1 [Compound 39]	93* %	95	96			
CNC(=O)OCCc1ccc(-c2noc(C(F)(F)F)n2)cc1 [Compound 42]		99	100			Test B disease control rating ([1]; 10 ppm): 0%
CCNC(=O)OCCc1ccc(-c2noc(C(F)(F)F)n2)cc1 [Compound 43, 2-[4-[5-(trifluoromethyl)-1,2,4-oxadiazol-3-yl]phenyl]ethyl N-ethylcarbamate]	0* %					pest or weed control at 10 ppm ([2]; Puccinia recondita, 168 h, 10 ppm, read-out: Test C disease control rating): 97%; pest or weed control at 10 ppm ([3]; Phakopsora pachyrhizi, 216 h, 10 ppm, read-out: Test A disease control rating): 100%
CCCNC(=O)OCc1ccc(-c2noc(C(F)(F)F)n2)s1 [Compound 46]	97* %	97	99			
CC(OC(=O)N(C)C)c1ccc(-c2noc(C(F)(F)F)n2)cc1 (stereo not drawn) [Compound 72]	0* %	55	100			
CCNC(=O)OC(COC)Cc1ccc(-c2noc(C(F)(F)F)n2)cc1 (stereo not drawn) [Compound 75]	97* %	91	100			
C#CCNC(=O)OC(C)c1ccc(-c2noc(C(F)(F)F)n2)cc1 (stereo not drawn) [Compound 76]	0* %	99	100			
CC(OC(=O)NC1CC1)c1ccc(-c2noc(C(F)(F)F)n2)cc1 (stereo not drawn) [Compound 77]		92	100			Test B disease control rating ([1]; 10 ppm): 0%
CCOC(=O)NC(=O)OCCc1ccc(-c2noc(C(F)(F)F)n2)cc1 [Compound 78]		91	100			Test B disease control rating ([1]; 10 ppm): 95%
CCOC(=O)NC(=O)OCc1ccc(-c2noc(C(F)(F)F)n2)cc1 [Compound 79]		97	100			Test B disease control rating ([1]; 10 ppm): 98%
NC(=O)OCc1ccc(-c2noc(C(F)(F)F)n2)cc1F [Compound 85]	98%			100	100	
NC(=O)OCc1ccc(-c2noc(C(F)(F)F)n2)cc1Cl [Compound 86]	94%			100	100	
CC(C)(OC(N)=O)c1ccc(-c2noc(C(F)(F)F)n2)cc1 [Compound 87]	99%			100	100	

Structure (SMILES)	Test B disease control rating [1, 4]	Test C disease control rating ([2]; 10 ppm) [%]	Test A disease control rating ([3]; 10 ppm) [%]	Test C disease control rating ([2]; 250 ppm) [%]	Test A disease control rating ([3]; 250 ppm) [%]	other results
NC(=O)OCc1cccc(-c2noc(C(F)(F)F)n2)c1 [Compound 93]	97%			100	100	
CNC(=O)OCc1cccc(-c2noc(C(F)(F)F)n2)c1 [Compound 94]	1%			100	69	
CCNC(=O)OCc1cccc(-c2noc(C(F)(F)F)n2)c1 [Compound 95]	3%			100	99	
C#CCNC(=O)OCc1cccc(-c2noc(C(F)(F)F)n2)c1 [Compound 96]	64%			100	100	
C=CCNC(=O)OCc1cccc(-c2noc(C(F)(F)F)n2)c1 [Compound 97]	52%			100	100	
C=C(C)CNC(=O)OCc1cccc(-c2noc(C(F)(F)F)n2)c1 [Compound 98]	3%			100	100	
CN(C)C(=O)OCc1cccc(-c2noc(C(F)(F)F)n2)c1 [Compound 99]	0%			55	0	
Cc1ccc(C(OC(=O)n2ccnc2)c2ccc(-c3noc(C(F)(F)F)n3)cc2)cc1 (stereo not drawn) [Compound 100]	98%			97	100	
NC(=O)OC(c1ccc(-c2noc(C(F)(F)F)n2)cc1)c1cccc(Cl)c1 (stereo not drawn) [Compound 101]	90%			99	100	
CNC(=O)OC(c1ccc(-c2noc(C(F)(F)F)n2)cc1)c1cccc(Cl)c1 (stereo not drawn) [Compound 102]	96%			90	100	
CCNC(=O)OC(c1ccc(-c2noc(C(F)(F)F)n2)cc1)c1cccc(Cl)c1 (stereo not drawn) [Compound 103]	20%			86	100	
C#CCNC(=O)OC(c1ccc(-c2noc(C(F)(F)F)n2)cc1)c1cccc(Cl)c1 (stereo not drawn) [Compound 104]	84%			80	100	
COC(=O)NN=Cc1ccc(-c2noc(C(F)(F)F)n2)cc1 [Compound 105, methyl 2-[[4-[5-(trifluoromethyl)-1,2,4-oxadiazol-3-yl]phenyl]methylene]-hydrazinecarboxylate]	99%					pest or weed control at 250 ppm [2, 5]: 100%; pest or weed control at 250 ppm [3, 6]: 100%
NC(=O)OC(c1ccc(F)cc1)c1ccc(-c2noc(C(F)(F)F)n2)cc1 (stereo not drawn) [Compound 112]	85%			100	100	
CNC(=O)OC(c1ccc(F)cc1)c1ccc(-c2noc(C(F)(F)F)n2)cc1 (stereo not drawn) [Compound 113]	82%			100	100	
CCNC(=O)OC(c1ccc(F)cc1)c1ccc(-c2noc(C(F)(F)F)n2)cc1 (stereo not drawn) [Compound 114]	9%			100	100	
O=C(OCc1cccc(-c2noc(C(F)(F)F)n2)c1)n1ccnc1 [Compound 123]	0%					pest or weed control at 250 ppm [2, 5]: 96%; pest or weed control at 250 ppm [3, 6]: 100%
